Like-named read-outs stand apart in the source and are kept apart here.
Columns and labels:
[1] = system: soybean rust pathogen (Phakopsora pachyrhizi); assay: Soybean rust control test (leaf discs); assay type: in vivo
Procedure: Compounds of component (I) and component (II) were dissolved in dimethyl sulfoxide and diluted with water to the prescribed concentration to prepare a chemical agent solution. A mixture of the prescribed concentration of the chemical agent solution and sterile water was prepared on a microplate, and leaf discs cut from soybean leaves were floated on the microplate. Uredospores of soybean rust pathogen (Phakopsora pachyrhizi) were inoculated and incubated at 25° C. for 9 days. The area percentage of lesions was determined by observing uredospore-forming lesions on the leaf discs, and the control value was calculated. The control value was calculated by the following formula:
Control value (%)=100−{Area percentage of lesions in treatment plot/Area percentage of lesions in untreatment plot}×100.
The results are shown in Tables 8 to 18, along with the expected values calculated as below. Each expected values was calculated from the fungicidal efficacy of a single application of compound of component (I) and the fungicidal efficacy of a single application of compound of component (II) by using Colby's equation:
[formula] • where E represents the expected value of the control value for the composition containing component (I) and component (II), M represents the control value (%) when the component (I) is used alone, and N represents the control value (%) when the component (II) is used alone. When the measured control value for the composition containing component (I) and component (II) is greater than the expected value E, the composition containing component (I) and composition (II) should exert a synergistic effect.

[2] = system: wheat leaf blight pathogen (Septoria tritici); assay: Fungicidal test for wheat leaf blight (microplate, turbidity at 405 nm); assay type: cell-based; details: for inhibition at 6.3 ppm / inhibition at 12.5 ppm / inhibition at 25 ppm / inhibition at 50 ppm / inhibition at 100 ppm: component (I) alone
Procedure: Compounds of component (I) and component (II) were dissolved in dimethyl sulfoxide at 10,000 ppm and diluted with water to the prescribed concentration to prepare a chemical agent solution. A mixture of the prescribed concentration of the chemical agent solution, wheat leaf blight pathogen (Septoria tritici) conidia, and malt extract was prepared on a microplate and incubated at 20° C. in the dark for 3 days. The turbidity at a wavelength of 405 nm was measured with a microplate reader, and the growth of wheat leaf blight pathogen was compared with that of no treatment control to determine the growth inhibition rate. The results are shown in Tables 2 to 7, along with the expected values calculated as below.
Each expected value was calculated from the fungicidal efficacy of a single application of the compound of component (I) and the fungicidal efficacy of a single application of compound of component (II) by using Colby's equation (S. R. Colby, Calculating synergistic and antagonistic responses of herbicide combinations, Weeds, 15, 20-22 pp (1967)).
[formula] • where E represents the expected value of the growth inhibition rate (%) for the composition containing component (I) and component (II), M represents the growth inhibition rate (%) when the component (I) is used alone, and N represents the growth inhibition rate (%) when the component (II) is used alone. When the measured growth inhibition rate (%) for the composition containing component (I) and component (II) is greater than the expected value E, the composition containing components (I) and component (II) should exert a synergistic effect.

[3] = system: cucumber anthracnose pathogen (Colletotrichum lagenarium); assay: Fungicidal test for cucumber anthracnose (microplate, turbidity at 405 nm); assay type: cell-based; details: for inhibition at 0.025 ppm / inhibition at 0.1 ppm / inhibition at 0.4 ppm: Colletotrichum orbiculare, read-out: growth inhibition rate
Procedure: The compounds were dissolved in dimethyl sulfoxide to prepare a chemical agent solution.
A mixture of the prescribed concentration of the chemical agent solution, cucumber anthracnose pathogen (Colletotrichum lagenarium) conidia, and Vogel medium was prepared on a microplate and incubated at 20° C. in the dark for 7 days.
Each expected value was calculated using Colby's equation:
[formula] • where E represents the expected value of the growth inhibition rate (%), M represents the growth inhibition rate (%) when the component (I) is used alone, and N represents the growth inhibition rate (%) when the component (II) is used alone.

[4] = Table 14, component (II) alone (component (I): None): Inpyrfluxam 0.00025, Chlorothalonil 0.006, Thiophanate-methyl 0.0001, Tebuconazole 0.000025, Trifloxystrobin 0.0001, Fluazinam 0.006, Prothioconazole 0.000025, Florylpicoxamid 0.0001, Metominostrobin 0.0004 ppm
[5] = Table 15, component (II) alone (component (I): None): Azoxystrobin 0.0001, Inpyrfluxam 0.000025, Chlorothalonil 0.0063, Difenoconazole 0.000025, Cyproconazole 0.000025, Tebuconazole 0.000025, Trifloxystrobin 0.0001, Pyraclostrobin 0.0001, Fluazinam 0.0063, Fluxapyroxad 0.000025, Prothioconazole 0.000025, Florylpicoxamid 0.0001, Benzovindiflupyr 0.000025, Mancozeb 0.0063 ppm
[6] = Table 16, component (II) alone (component (I): None): Inpyrfluxam 0.000025, Chlorothalonil 0.006, Thiophanate-methyl 0.0001, Tebuconazole 0.000025, Trifloxystrobin 0.0001, Fluazinam 0.006, Prothioconazole 0.000025, Florylpicoxamid 0.0001, Metominostrobin 0.0004 ppm
[7] = Table 17, component (II) alone (component (I): None): Inpyrfluxam 0.000026, Chlorothalonil 0.02, Thiophanate-methyl 0.0004, Tebuconazole 0.0001, Trifloxystrobin 0.0001, Fluazinam 0.006, Prothioconazole 0.000025, Florylpicoxamid 0.0001, Metominostrobin 0.0004 ppm
[8] = Table 18, component (II) alone (component (I): None): Azoxystrobin 0.0001, Inpyrfluxam 0.000025, Chlorothalonil 0.0063, Difenoconazole 0.000025, Cyproconazole 0.000025, Tebuconazole 0.000025, Trifloxystrobin 0.0001, Pyraclostrobin 0.0001, Fluazinam 0.0063, Fluxapyroxad 0.000025, Prothioconazole 0.000025, Florylpicoxamid 0.0001, Benzovindiflupyr 0.000025, Mancozeb 0.0063 ppm
[9] = component (II) alone, 0.001 ppm
[10] = Table 19, component (II) alone (component (I): None): Ipflufenoquin 0.000026, Iminoctadine trialbesilate 0.0032, Cyflufenamid 10, Cyprodinil 0.00013, Potassium bicarbonate 0.08, Thiophanate-methyl 0.08, Picarbutrazox 0.016, Fludioxonil 0.0032, Florylpicoxamid 0.0032, Metyltetraprole 0.08, Mefentrifluconazole 0.4 ppm
[11] = Table 20, component (II) alone (component (I): None): Ipflufenoquin 0.00064, Iminoctadine trialbesilate 0.0032, Cyflufenamid 10, Cyprodinil 0.00013, Potassium bicarbonate 0.08, Thiophanate-methyl 0.4, Picarbutrazox 0.016, Fludioxonil 0.0032, Florylpicoxamid 0.0032, Metyltetraprole 0.08, Mefentrifluconazole 0.4 ppm
[12] = Table 21, component (II) alone (component (I): None): Ipflufenoquin 0.00064, Iminoctadine trialbesilate 0.0032, Cyflufenamid 10, Cyprodinil 0.00013, Potassium bicarbonate 0.08, Thiophanate-methyl 0.4, Picarbutrazox 0.00064, Fludioxonil 0.0032, Florylpicoxamid 0.0032, Metyltetraprole 0.08, Mefentrifluconazole 0.4 ppm
[13] = Table 22, component (II) alone (component (I): None): Ipflufenoquin 0.00064, Iminoctadine trialbesilate 0.0032, Cyflufenamid 10, Cyprodinil 0.00013, Potassium bicarbonate 0.08, Thiophanate-methyl 0.4, Picarbutrazox 0.00064, Fludioxonil 0.0032, Florylpicoxamid 0.0032, Metyltetraprole 0.08, Mefentrifluconazole 0.4 ppm
[14] = Table 23, component (II) alone (component (I): None): Ipflufenoquin 0.00064, Iminoctadine trialbesilate 0.0032, Cyflufenamid 10, Cyprodinil 0.000026, Potassium bicarbonate 0.08, Thiophanate-methyl 0.4, Picarbutrazox 0.00064, Fludioxonil 0.00064, Florylpicoxamid 0.0032, Metyltetraprole 0.08, Mefentrifluconazole 0.4 ppm
[15] = Table 24, component (II) alone (component (I): None): Ipflufenoquin 0.00064, Iminoctadine trialbesilate 0.0032, Cyflufenamid 10, Cyprodinil 0.00013, Potassium bicarbonate 0.08, Thiophanate-methyl 0.4, Picarbutrazox 0.00064, Fludioxonil 0.00013, Florylpicoxamid 0.0032, Metyltetraprole 0.08, Mefentrifluconazole 0.4 ppm
[16] = component (I) alone, 0.0063 ppm
[17] = Zymoseptoria tritici, read-out: growth inhibition rate

COc1ccnc(C(=O)N[C@@H](C)C(=O)O[C@@H](C)C(c2ccc(F)cc2)c2ccc(F)cc2)c1OC(C)=O [Florylpicoxamid, florylpicoxamid, reference compound]
control value [1, 4]: 27% | control value [1, 5]: 0% | control value [1, 6]: 27% | control value [1, 7]: 27% | control value [1, 8]: 0% | growth inhibition rate [2, 9]: 80% | growth inhibition rate ([2]; component (II) alone, .0002 ppm (also printed 0002)): 70% | growth inhibition rate [3, 10]: 0% | growth inhibition rate [3, 11]: 0% | growth inhibition rate [3, 12]: 0% | growth inhibition rate [3, 13]: 0% | growth inhibition rate [3, 14]: 0% | growth inhibition rate [3, 15]: 0%

Cc1nc2c(F)c(F)ccc2cc1Oc1cccc(F)c1C(C)(C)O [Ipflufenoquin, ipflufenoquin, reference compound]
growth inhibition rate ([2]; component (II) alone, 0.06 ppm): 6% | growth inhibition rate ([2]; component (II) alone, 0.25 ppm): 6% | growth inhibition rate ([2]; component (II) alone, 1 ppm): 22% | growth inhibition rate [3, 10]: 0% | growth inhibition rate [3, 11]: 47% | growth inhibition rate [3, 12]: 47% | growth inhibition rate [3, 13]: 47% | growth inhibition rate [3, 14]: 47% | growth inhibition rate [3, 15]: 47%

CCON=C1CN(C(=O)C(OC)c2ccc(-c3noc(C(F)(F)F)n3)cc2)C1 (centres unmarked) [Compound 5]
control value [1, 16]: 7% | control value ([1]; component (I) alone, 0.025 ppm): 18% | control value ([1]; component (I) alone, 0.1 ppm): 46% | control value ([1]; component (I) alone, 0.4 ppm): 90% | inhibition at 6.3 ppm [2, 17]: 61% | inhibition at 12.5 ppm [2, 17]: 68% | inhibition at 25 ppm [2, 17]: 68% | inhibition at 50 ppm [2, 17]: 64% | inhibition at 100 ppm [2, 17]: 72% | inhibition at 0.025 ppm ([3]; Compound 5 alone): 4% | inhibition at 0.1 ppm ([3]; Compound 5 alone): 76% | inhibition at 0.4 ppm ([3]; Compound 5 alone): 90%

N#CCON=C1CN(C(=O)Cc2ccc(-c3noc(C(F)(F)F)n3)cc2)C1 [Compound 3]
control value [1, 16]: 12% | control value ([1]; component (I) alone, 0.025 ppm): 22% | control value ([1]; component (I) alone, 0.1 ppm): 35% | control value ([1]; component (I) alone, 0.4 ppm): 85% | inhibition at 6.3 ppm [2, 17]: 32% | inhibition at 12.5 ppm [2, 17]: 41% | inhibition at 25 ppm [2, 17]: 42% | inhibition at 50 ppm [2, 17]: 44% | inhibition at 100 ppm [2, 17]: 49% | inhibition at 0.025 ppm ([3]; Compound 3 alone): 26% | inhibition at 0.1 ppm ([3]; Compound 3 alone): 9% | inhibition at 0.4 ppm ([3]; Compound 3 alone): 84%

OC(Cc1ccccc1Cl)(Cn1nc[nH]c1=S)C1(Cl)CC1 (centres unmarked) [Prothioconazole, prothioconazole, reference compound]
control value [1, 4]: 44% | control value [1, 5]: 33% | control value [1, 6]: 44% | control value [1, 7]: 44% | control value [1, 8]: 50% | inhibition at 0.02 ppm ([2]; Zymoseptoria tritici, component (II) alone, 0.02 ppm, read-out: growth inhibition rate): 10% | inhibition at 0.25 ppm ([2]; Zymoseptoria tritici, component (II) alone, 0.25 ppm, read-out: growth inhibition rate): 7% | inhibition at 1 ppm ([2]; Zymoseptoria tritici, component (II) alone, 1 ppm, read-out: growth inhibition rate): 8%

CCON=C1CN(C(=O)C(C)c2ccc(-c3noc(C(F)(F)F)n3)cc2)C1 (centres unmarked) [Compound 6]
control value [1, 16]: 19% | control value ([1]; component (I) alone, 0.025 ppm): 49% | control value ([1]; component (I) alone, 0.1 ppm): 76% | control value ([1]; component (I) alone, 0.4 ppm): 98% | inhibition at 6.3 ppm [2, 17]: 47% | inhibition at 12.5 ppm [2, 17]: 58% | inhibition at 25 ppm [2, 17]: 63% | inhibition at 50 ppm [2, 17]: 64% | inhibition at 100 ppm [2, 17]: 69% | inhibition at 0.025 ppm ([3]; Compound 6 alone): 32% | inhibition at 0.1 ppm ([3]; Compound 6 alone): 67% | inhibition at 0.4 ppm ([3]; Compound 6 alone): 86%

Cn1cc(C(=O)Nc2ccccc2-c2cc(F)c(F)c(F)c2)c(C(F)F)n1 [Fluxapyroxad, fluxapyroxad]
control value [1, 5]: 0% | control value [1, 8]: 75% | growth inhibition rate [2, 9]: 32% | growth inhibition rate ([2]; component (II) alone, 0.02 ppm): 63% | growth inhibition rate ([2]; component (II) alone, 1 ppm): 86%

— patent US20240268388A1, “AGRICULTURAL AND HORTICULTURAL FUNGICIDAL COMPOSITION” (NIPPON SODA CO., LTD., priority 2021, published 2024)
